Source: patent US12151019B2, “Compositions for blood storage and transfusions” (Albert Einstein College of Medicine, priority 2020, dated 2024)

Assay: Loading potential / solubility in PEG400/myristic acid vehicles and in water
Format: physicochemical
Settings: for dissolved material in aqueous solution: aqueous sample compared with Sample 3
Procedure: Vehicles for loading the active ingredient were prepared as illustrated in samples 1-4. Myristic acid (solid flakes) was dissolved in PEG400 upon warming the mixture in a warm water bath. Shaking accelerated the formation of the resulting clear solution. The following four concentrations of myristic acid (MA) in PEG400 were prepared and evaluated. Samples 1, 2, 3 and 4 were all clear solutions when the samples were allowed to attain ambient temperatures. • a. 30 ml of PEG400+1.5 grams of MA (Sample 1) • b. 30 ml of PEG400+3 grams of MA (Sample 2) • c. 30 ml of PEG400+0.75 grams of MA (Sample 3) • d. 30 ml of PEG400+2.25 grams of MA (Sample 4)
The samples as vehicles were loaded with NO enhancing agent. […] Samples 1 and 2 were initially liquid but formed a solid uniform gel over a period of several hours. Sample 3 was prepared by dissolving 0.75 grams of MA in 30 ml's of PEG400 and heating in a water bath (˜60-80 C) for ˜15 minutes. Sample 4 was prepared by dissolving 2.25 grams of MA in 30 mls of PEG400 and heating in a water bath (˜60-80 C) for ˜15 minutes. Both sample 3 and sample 4 were uniform solutions when the heating cycle was finished. Upon cooling sample 3 remained liquid whereas sample 4 formed a uniform gel.
The addition of water to the PEG400/MA based formulation can create a nonuniform emulsion that poses difficulties for topical use.
The Sample 3 solvent system was also tested as a vehicle for loading potential with the following low solubility reagents using the above method: quercetin, berberine, N-acetyl cysteine amide (NACA) and N-acetyl cysteine ethyl ester (NAC-ethylester).

dissolved material in aqueous solution	solubility of quercetin in sample 3 or sample 4 (either sample 3 or sample 4 vehicle)	SMILES	dissolving of added curcumin in PEG400/myristic acid (1.5 grams of Curcumin 95 added to Samples 1, 2, 3 (30 ml PEG400 + MA), warmed, shaken, cooled to ambient)
minimal dissolved material	200-300 mg quercetin in 30 ml	O=c1c(O)c(-c2ccc(O)c(O)c2)oc2cc(O)cc(O)c12 [quercetin]	–
–	–	COc1cc(/C=C/C(=O)CC(=O)/C=C/c2ccc(O)c(OC)c2)ccc1O [Curcumin 95]	dissolving of almost all of the added curcumin
minimal dissolved material	–	COc1ccc2cc3[n+](cc2c1OC)CCc1cc2c(cc1-3)OCO2 [berberine]	–
